Consider 25 molecules from publication PMC6749450, “Probing the Effects of Pyrimidine Functional Group Switches on Acyclic Fleximer Analogues for Antiviral Activity” (Molecules, 2019).

One assay relates to Ebola virus (EBOV). Nature of the assay: microbe, parasite or virus in culture. In kind it is cell-based, EBOV-Makona. Particulars: for EC50: Zaire ebolavirus, Huh-7, 72 h, read-out: EC50: effective concentration showing 50% inhibition of virus-expressed ZsGreen fluorescence.
Another assay relates to flaviviruses. The following applies: ref unpublished results; cited from earlier work.
In the next assay the test system is filoviruses. Particulars: cited from earlier work.
The subject of a further assay is coronaviruses. Particulars: cited from earlier work.

Some results are limits rather than exact numbers.

Take `COc1nc(N)ncc1-c1cn(COCCOC(C)=O)cn1` [1-Ac]: in the assay with Ebola virus (EBOV), the “activity against EBOV (in words)” value is listed as “not active against EBOV” and the EC50 is greater than 100 µM.
For `CCC(=O)OCCOCn1cnc(-c2cnc(N)nc2OC)c1` [1-EtAc, 2-((4-(2-Amino-4-methoxypyrimidin-5-yl)-1H-imidazol-1-yl)methoxy)ethyl propionate], the EC50 in the assay with Ebola virus (EBOV) turned out to be 62.2 ± 19 µM.
On the same count and under the same terms, next, `COc1nc(N)ncc1-c1cn(COCCOC(=O)C(C)C)cn1` [1-^iPrAc, 2-((4-(2-Amino-4-methoxypyrimidin-5-yl)-1H-imidazol-1-yl)methoxy)ethyl isobutyrate]: greater than 100 µM; `COc1nc(N)ncc1-c1cn(COCCOC(=O)C(C)(C)C)cn1` [1-^tBuAc, 2-((4-(2-Amino-4-methoxypyrimidin-5-yl)-1H-imidazol-1-yl)methoxy)ethyl pivalate]: 7.21 ± 1.85 µM; `COc1ncc(-c2cn(COCCOC(C)=O)cn2)c(OC)n1` [2-Ac]: 16.3 ± 11.5 µM.
Take `CCC(=O)OCCOCn1cnc(-c2cnc(OC)nc2OC)c1` [2-EtAc, 2-((4-(2,4-Dimethoxypyrimidin-5-yl)-1H-imidazol-1-yl)methoxy)ethyl propionate]: the EC50 in the assay on Ebola virus (EBOV) was greater than 100 µM.
Turning to `COc1ncc(-c2cn(COCCOC(=O)C(C)C)cn2)c(OC)n1` [2-^iPrAc, 2-((4-(2,4-Dimethoxypyrimidin-5-yl)-1H-imidazol-1-yl)methoxy)ethyl isobutyrate], the EC50 in the assay on Ebola virus (EBOV) is 32 ± 9.12 µM.
Consider `COc1ncc(-c2cn(COCCOC(=O)C(C)(C)C)cn2)c(OC)n1` [2-^tBuAc, 2-((4-(2,4-Dimethoxypyrimidin-5-yl)-1H-imidazol-1-yl)methoxy)ethyl pivalate], for which the EC50 with Ebola virus (EBOV) is 81.3 ± 10.2 µM.
Same read-out and setting: the value for `COc1ncncc1-c1cn(COCCOC(C)=O)cn1` [3-Ac, 2-((4-(4-Methoxypyrimidin-5-yl)-1H-imidazol-1-yl)methoxy)ethyl acetate] was 35.4 ± 20.4 µM.
With `CCC(=O)OCCOCn1cnc(-c2cncnc2OC)c1` [3-EtAc, 2-((4-(4-Methoxypyrimidin-5-yl)-1H-imidazol-1-yl)methoxy)ethyl propionate], the EC50 in the assay on Ebola virus (EBOV) was found to be 51.9 ± 19.6 µM.
As for `COc1ncncc1-c1cn(COCCOC(=O)C(C)C)cn1` [3-^iPrAc, 2-((4-(4-Methoxypyrimidin-5-yl)-1H-imidazol-1-yl)methoxy)ethyl isobutyrate], the EC50 with Ebola virus (EBOV) stood at 38.3 ± 28.2 µM.
On the same count and under the same terms, the value for `COc1ncncc1-c1cn(COCCOC(=O)C(C)(C)C)cn1` [3-^tBuAc, 2-((4-(4-Methoxypyrimidin-5-yl)-1H-imidazol-1-yl)methoxy)ethyl pivalate] was 51.4 ± 10 µM; that for `CC(=O)OCCOCn1cnc(-c2cnc(N)nc2)c1` [4-Ac, 2-((4-(2-Aminopyrimidin-5-yl)-1H-imidazol-1-yl)methoxy)ethyl acetate] was 52.9 ± 28.2 µM.
As for `CCC(=O)OCCOCn1cnc(-c2cnc(N)nc2)c1` [4-EtAc, 2-((4-(2-Aminopyrimidin-5-yl)-1H-imidazol-1-yl)methoxy)ethyl propionate], the EC50 with Ebola virus (EBOV) is greater than 100 µM.
Consider `CC(C)C(=O)OCCOCn1cnc(-c2cnc(N)nc2)c1` [4-^iPrAc, 2-((4-(2-Aminopyrimidin-5-yl)-1H-imidazol-1-yl)methoxy)ethyl isobutyrate], for which, in the assay on Ebola virus (EBOV), the EC50 was found to be 54 ± 23.7 µM.
As for `CC(C)(C)C(=O)OCCOCn1cnc(-c2cnc(N)nc2)c1` [4-^tBuAc, 2-((4-(2-Aminopyrimidin-5-yl)-1H-imidazol-1-yl)methoxy)ethyl pivalate], the EC50 with Ebola virus (EBOV) amounted to 34.4 ± 20 µM.
For the molecule `CC(=O)OCCOCn1cnc(-c2cncnc2N)c1` [5-Ac, 2-((4-(4-Aminopyrimidin-5-yl)-1H-imidazol-1-yl)methoxy)ethyl acetate], the EC50 with Ebola virus (EBOV) is greater than 100 µM.
Regarding `CCC(=O)OCCOCn1cnc(-c2cncnc2N)c1` [5-EtAc, 2-((4-(4-Aminopyrimidin-5-yl)-1H-imidazol-1-yl)methoxy)ethyl propionate], the EC50 with Ebola virus (EBOV) is greater than 100 µM.
Same read-out and setting: the value for `CC(C)C(=O)OCCOCn1cnc(-c2cncnc2N)c1` [5-^iPrAc, 2-((4-(4-Aminopyrimidin-5-yl)-1H-imidazol-1-yl)methoxy)ethyl isobutyrate] was greater than 100 µM; that for `CC(C)(C)C(=O)OCCOCn1cnc(-c2cncnc2N)c1` [5-^tBuAc, 2-((4-(4-Aminopyrimidin-5-yl)-1H-imidazol-1-yl)methoxy)ethyl pivalate] was 72.3 ± 18.7 µM.
With `COc1nc(N)ncc1-c1cn(COCCO)cn1` [compound 1], the “antiviral activity against flaviviruses” value with flaviviruses was “low micromolar activity”. For the same molecule, the “antiviral activity against filoviruses” value with filoviruses is listed as “low micromolar activity”. The “antiviral activity against coronaviruses” value with coronaviruses is reported as “low micromolar activity”. Moreover, the EC50 in the assay with Ebola virus (EBOV) worked out at 1.49 ± 0.98 µM.
As to `COc1ncc(-c2cn(COCCO)cn2)c(OC)n1` [compound 2], in the assay on Ebola virus (EBOV), the EC50 was determined as 23.4 ± 20.3 µM.
Regarding `COc1ncncc1-c1cn(COCCO)cn1` [compound 3, 2-((4-(4-Methoxypyrimidin-5-yl)-1H-imidazol-1-yl)methoxy)ethan-1-ol], the EC50 with Ebola virus (EBOV) amounted to 78.9 ± 17.1 µM.
As to `Nc1ncc(-c2cn(COCCO)cn2)cn1` [compound 4, 2-((4-(2-Aminopyrimidin-5-yl)-1H-imidazol-1-yl)methoxy)ethan-1-ol], in the assay with Ebola virus (EBOV), the “activity against EBOV (in words)” value is given as “did not display any activity against EBOV” and the EC50 was greater than 100 µM.
Consider `Nc1ncncc1-c1cn(COCCO)cn1` [compound 5, 2-((4-(4-Aminopyrimidin-5-yl)-1H-imidazol-1-yl)methoxy)ethan-1-ol], for which, in the assay on Ebola virus (EBOV), the “activity against EBOV (in words)” value is “did not display any activity against EBOV” and the EC50 was greater than 100 µM.
